# Laboratory results: patent US20230143604A1, “QW DOSING OF GIP RECEPTOR AGONIST PEPTIDE COMPOUNDS AND USES THEREOF” (TAKEDA PHARMACEUTICAL COMPANY LIMITED, priority 2020, published 2023)
# Read-outs that look alike come from different tables or passages of the source. Positions of bridges follow the written chain, without caps; N, C: chain ends. Non-standard residues stand in square brackets, D forms with d. Chains are numbered I, II in the order given. *: point of attachment. C18 diacid = O=C(O)CCCCCCCCCCCCCCCCC(=O)*; NMeY = CN[C@@H](Cc1ccc(O)cc1)C(=O)O; Aib = CC(C)(N)C(=O)O
# Legend:
# C57BL/6J mice = test: Oral glucose tolerance test (OGTT); type: in vivo; settings: 3 nmol/kg s.c., 24 hours before glucose loading
# How it was run: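 Peptide or vehicle given s.c. at 0.1, 0.3, 3 or 10 nmol/kg (peptide-dependent), 24 h before oral 50% dextrose at 5 ml/kg unless stated otherwise. Blood glucose read at 0, 15, 30 and 60 min. % inhibition = (1−(AUC cpd−AUC naïve)/(AUC veh−AUC naïve))×100.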
# human GLP-1R = target: T1, human GLP-1R (Homo sapiens, UniProt P43220); test: Human GLP1R agonist activity, intracellular cAMP accumulation; type: cell-based; settings: HEK-293T cells overexpressing human GLP-1R, 1 hr
# T1 construct: HEK-293T cells overexpressing full-length human GLP-1R; FLAG (N); host or cells: HEK-293T
# T1 sequence (P43220 24-463): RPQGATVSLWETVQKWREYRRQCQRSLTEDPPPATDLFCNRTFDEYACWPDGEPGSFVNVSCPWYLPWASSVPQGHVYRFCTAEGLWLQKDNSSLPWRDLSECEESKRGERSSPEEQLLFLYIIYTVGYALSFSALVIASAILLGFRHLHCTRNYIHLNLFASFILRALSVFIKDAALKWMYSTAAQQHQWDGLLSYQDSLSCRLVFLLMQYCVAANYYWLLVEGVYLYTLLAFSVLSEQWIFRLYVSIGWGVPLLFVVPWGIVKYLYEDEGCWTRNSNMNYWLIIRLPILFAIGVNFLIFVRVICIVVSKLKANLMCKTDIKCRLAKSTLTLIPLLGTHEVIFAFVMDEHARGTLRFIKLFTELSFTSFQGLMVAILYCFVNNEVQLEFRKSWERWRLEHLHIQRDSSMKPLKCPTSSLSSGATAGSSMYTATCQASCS
# How it was run: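 cAMP accumulation is measured by HTRF after a 1 hr, room-temperature, dark exposure of thawed cells (4×10^5 cells/mL in Krebs Ringer buffer) to compound. Activity is scaled between DMSO alone as 0% and 1 nm GLP-1 as 100%.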
# human GIPR = target: T2, human GIPR (Homo sapiens, UniProt P48546); test: Human GIPR agonist activity, intracellular cAMP accumulation; type: cell-based
# T2 construct: HEK-293T cells overexpressing full-length human GIPR; FLAG (N); host or cells: HEK-293T
# T2 sequence (P48546 22-466): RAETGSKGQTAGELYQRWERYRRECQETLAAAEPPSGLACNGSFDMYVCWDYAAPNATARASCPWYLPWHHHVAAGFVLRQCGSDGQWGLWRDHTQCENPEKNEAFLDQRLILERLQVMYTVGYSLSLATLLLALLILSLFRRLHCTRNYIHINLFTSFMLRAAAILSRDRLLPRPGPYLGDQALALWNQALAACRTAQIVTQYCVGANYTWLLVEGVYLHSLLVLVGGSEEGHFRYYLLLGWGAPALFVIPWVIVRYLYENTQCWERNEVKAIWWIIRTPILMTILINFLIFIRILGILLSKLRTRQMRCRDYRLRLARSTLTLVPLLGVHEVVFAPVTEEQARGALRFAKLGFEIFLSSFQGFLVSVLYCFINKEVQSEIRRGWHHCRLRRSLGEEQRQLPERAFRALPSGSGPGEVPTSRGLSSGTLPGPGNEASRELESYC
# Protocol: Cells are cultured per the manufacturer's protocol in DMEM with 10% fetal bovine serum and 1 μg/mL puromycin and stored in frozen aliquots to be used as assay ready cells. On the day of the assay, cells are removed from frozen storage, washed two times in 1× Kreb's Ringer Buffer (Zenbio, Research Triangle Park, N.C.), and re-suspended to a concentration of 4×10^5 cells/mL in 1× Kreb's Ringer Buffer. […] Cells are incubated with test compound for 1 hr at room temperature in the dark, and cAMP accumulation is measured using the Cisbio HiRange cAMP assay kit (Bedford, Mass.) per the manufacturer's protocol. Anti-cAMP antibody and d2-cAMP tracer reagents diluted in lysis/detection buffer are incubated in the dark for 1 hr, and results are measured on an Envision plate reader (Perkin Elmer, Waltham, Mass.). Data is normalized using 1 nM GIP as 100% activity, and DMSO alone as 0% activity.
# [1] = Solubility in phosphate buffer pH 7.4
# How it was run: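 Solubility at pH 7.4 determined by stepwise addition of 200 mM phosphate buffer in 100 μL increments to 3 mg peptide, mixing briefly each time, until no insoluble material remained, then measured by liquid chromatography.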
# [2] = Human plasma protein binding (PPB); type: in vitro ADME; settings: both sexes, pH 7.4; fraction unbound; human plasma, 1000 nmol/L peptide, ultracentrifugation; read-out: Human PPB (FUplasma)
# How it was run: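 Peptides spiked at 1000 nmol/L into pooled human K2-EDTA plasma adjusted to pH 7.4, incubated 30 min at 37 °C, then ultracentrifuged at ~450,000 g, 4 °C for 3 h. Fu derived from LC-MS/MS (MRM) peak area ratios, supernatant versus plasma.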
# [3] = Dog plasma protein binding (PPB); type: in vitro ADME; settings: pH 7.4; fraction unbound; dog serum; read-out: Dog PPB (FUplasma)
# How it was run: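 Fraction unbound (Fu,plasma) is given as a percentage. It was measured with the method and analysis of the human protein-binding protocol, but using dog serum in place of human serum.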
# [4] = Human GLP1R cAMP EC50, HEK293T (nM)
# [5] = pH 7.4, aqueous buffer, pH 7.4 Phosphate Buffer - Solubility, 200 mM Phosphate buffer pH 7.4
# [6] = pH 7.4, solubility in phosphate buffer at pH 7.4, 200 mM phosphate buffer pH 7.4
# [7] = read-out: Human GLP1R cAMP EC50, HEK293T
# [8] = HEK-293T cells overexpressing human GIPR, cAMP accumulation, 1 hr, read-out: Human GIPR cAMP EC50, HEK293T
Compound,Oral Glucose Tolerance Test Percent decrease in blood glucose AUC (%) over 60 mins (C57BL/6J mice),EC50 (human GLP-1R; [4]),EC50 (human GIPR),"solubility [1, 5]","solubility [1, 6]","fraction unbound at 30 min, 1000 nmol/L [2]","fraction unbound at 30 min, 1000 nmol/L [3]",EC50 (human GLP-1R; [7]),EC50 (human GIPR; [8]),solubility ([1]; pH 7.4),"solubility ([1]; pH 7.4, aqueous buffer)"
CC[C@H](C)[C@H](NC(=O)[C@H](CO)NC(=O)[C@H](Cc1ccc(O)cc1)NC(=O)[C@H](CC(=O)O)NC(=O)[C@H](CO)NC(=O)[C@@H](NC(=O)[C@H](Cc1ccccc1)NC(=O)[C@@H](NC(=O)CNC(=O)[C@H](CCC(=O)O)NC(=O)C(C)(C)NC(=O)[C@H](Cc1ccc(O)cc1)NC)[C@@H](C)O)[C@@H](C)CC)C(=O)N[C@@H](C)C(=O)N[C@@H](CCCCNC(=O)CNC(=O)CNC(=O)CNC(=O)CNC(=O)CNC(=O)CCCCCCCCCCCCCCCCC(=O)O)C(=O)N[C@@H](CC(=O)O)C(=O)N[C@@H](CCCNC(=N)N)C(=O)NC(C)(C)C(=O)N[C@@H](C)C(=O)N[C@@H](CCC(N)=O)C(=O)NC(C)(C)C(=O)N[C@@H](CC(=O)O)C(=O)N[C@@H](Cc1ccccc1)C(=O)N[C@H](C(=O)N[C@@H](CC(N)=O)C(=O)N[C@@H](Cc1c[nH]c2ccccc12)C(=O)N[C@@H](CC(C)C)C(=O)N[C@@H](CC(C)C)C(=O)N[C@@H](C)C(=O)N[C@@H](CCC(N)=O)C(=O)N[C@@H](CCCNC(=N)N)C(=O)N1CCC[C@H]1C(=O)N[C@@H](CO)C(=O)N[C@@H](CO)C(=O)NCC(=O)N[C@@H](C)C(=O)N1CCC[C@H]1C(=O)N1CCC[C@H]1C(=O)N1CCC[C@H]1C(=O)N[C@@H](CO)C(=O)O)C(C)C [Compound 43],97% (3 nmol/kg),61.7 nM,0.001 nM,≥ 30 mg/mL,≥ 15 mg/mL,–,–,–,–,–,–
CC[C@H](C)[C@H](NC(=O)[C@H](CO)NC(=O)[C@H](Cc1ccc(O)cc1)NC(=O)[C@H](CC(=O)O)NC(=O)[C@H](CO)NC(=O)[C@@H](NC(=O)[C@H](Cc1ccccc1)NC(=O)[C@@H](NC(=O)CNC(=O)[C@H](CCC(=O)O)NC(=O)C(C)(C)NC(=O)[C@H](Cc1ccc(O)cc1)NC)[C@@H](C)O)[C@@H](C)CC)C(=O)N[C@@H](C)C(=O)N[C@@H](CCCCNC(=O)CNC(=O)CNC(=O)CNC(=O)CNC(=O)CNC(=O)CCCCCCCCCCCCCCCCC(=O)O)C(=O)N[C@@H](CC(=O)O)C(=O)N[C@@H](CCCNC(=N)N)C(=O)NC(C)(C)C(=O)N[C@@H](C)C(=O)N[C@@H](CCC(N)=O)C(=O)NC(C)(C)C(=O)N[C@@H](CC(N)=O)C(=O)N[C@@H](Cc1ccccc1)C(=O)N[C@H](C(=O)N[C@@H](CC(N)=O)C(=O)N[C@@H](Cc1c[nH]c2ccccc12)C(=O)N[C@@H](CC(C)C)C(=O)N[C@@H](CC(C)C)C(=O)N[C@@H](C)C(=O)N[C@@H](CCC(N)=O)C(=O)N[C@@H](CCCNC(=N)N)C(=O)N1CCC[C@H]1C(=O)N[C@@H](CO)C(=O)N[C@@H](CO)C(=O)NCC(=O)N[C@@H](C)C(=O)N1CCC[C@H]1C(=O)N1CCC[C@H]1C(=O)N1CCC[C@H]1C(=O)N[C@@H](CO)C(=O)O)C(C)C [Compound 44],119% (3 nmol/kg),10.7 nM,0.0017 nM,≥ 30 mg/mL,≥ 15 mg/mL,0.0007,0.0004,–,–,–,–
CC[C@H](C)[C@H](NC(=O)[C@H](Cc1ccccc1)NC(=O)[C@@H](NC(=O)CNC(=O)[C@H](CCC(=O)O)NC(=O)C(C)(C)NC(=O)[C@H](Cc1ccc(O)cc1)NC)[C@@H](C)O)C(=O)N[C@@H](CO)C(=O)N[C@@H](CC(=O)O)C(=O)N[C@@H](Cc1ccc(O)cc1)C(=O)N[C@@H](CO)C(=O)N[C@H](C(=O)NC(C)(C)C(=O)N[C@@H](CCCCNC(=O)CNC(=O)CNC(=O)CNC(=O)CNC(=O)CNC(=O)CCCCCCCCCCCCCCCCCCC(=O)O)C(=O)N[C@@H](CC(=O)O)C(=O)N[C@@H](CCCNC(=N)N)C(=O)NC(C)(C)C(=O)N[C@@H](C)C(=O)N[C@@H](CCC(N)=O)C(=O)NC(C)(C)C(=O)N[C@@H](CC(=O)O)C(=O)N[C@@H](Cc1ccccc1)C(=O)N[C@H](C(=O)N[C@@H](CC(N)=O)C(=O)N[C@@H](Cc1c[nH]c2ccccc12)C(=O)N[C@@H](CC(C)C)C(=O)N[C@@H](CC(C)C)C(=O)N[C@@H](C)C(=O)N[C@@H](CCC(N)=O)C(=O)N[C@@H](CCCNC(=N)N)C(=O)NCC(=O)O)C(C)C)[C@@H](C)CC [Compound 67],–,–,–,–,–,–,–,33.9 nM,0.0013 nM,≥ 15 mg/mL,≥ 30 mg/mL
CC[C@H](C)[C@H](NC(=O)[C@H](CO)NC(=O)[C@H](Cc1ccc(O)cc1)NC(=O)[C@H](CC(=O)O)NC(=O)[C@H](CO)NC(=O)[C@@H](NC(=O)[C@H](Cc1ccccc1)NC(=O)[C@@H](NC(=O)CNC(=O)[C@H](CCC(=O)O)NC(=O)C(C)(C)NC(=O)[C@H](Cc1ccc(O)cc1)NC)[C@@H](C)O)[C@@H](C)CC)C(=O)N[C@@H](C)C(=O)N[C@@H](CCCCNC(=O)CNC(=O)CNC(=O)CNC(=O)CNC(=O)CNC(=O)CCCCCCCCCCCCCCCCC(=O)O)C(=O)N[C@@H](CC(=O)O)C(=O)N[C@@H](CCCNC(=N)N)C(=O)NC(C)(C)C(=O)N[C@@H](C)C(=O)N[C@@H](CCC(N)=O)C(=O)NC(C)(C)C(=O)N[C@@H](CC(=O)O)C(=O)N[C@@H](Cc1ccccc1)C(=O)N[C@H](C(=O)N[C@@H](CC(N)=O)C(=O)N[C@@H](Cc1c[nH]c2ccccc12)C(=O)N[C@@H](CC(C)C)C(=O)N[C@@H](CC(C)C)C(=O)N[C@@H](C)C(=O)N[C@@H](CCC(N)=O)C(=O)N[C@@H](CO)C(=O)N1CCC[C@H]1C(=O)N[C@@H](CO)C(=O)N[C@@H](CO)C(=O)NCC(=O)O)C(C)C [Compound 116],–,–,–,–,–,–,–,110 nM,0.001 nM,≥ 15 mg/mL,≥ 30 mg/mL
CC[C@H](C)[C@H](NC(=O)[C@H](Cc1ccccc1)NC(=O)[C@@H](NC(=O)CNC(=O)[C@H](CCC(=O)O)NC(=O)C(C)(C)NC(=O)[C@@H](N)Cc1ccc(O)cc1)[C@@H](C)O)C(=O)N[C@@H](CO)C(=O)N[C@@H](CC(=O)O)C(=O)N[C@@H](Cc1ccc(O)cc1)C(=O)N[C@@H](CO)C(=O)N[C@H](C(=O)NC(C)(C)C(=O)N[C@@H](CCCCNC(=O)CNC(=O)CNC(=O)CNC(=O)CNC(=O)CNC(=O)CCCCCCCCCCCCCCCCC(=O)O)C(=O)N[C@@H](CC(=O)O)C(=O)N[C@@H](CCCNC(=N)N)C(=O)NC(C)(C)C(=O)N[C@@H](C)C(=O)N[C@@H](CCC(N)=O)C(=O)NC(C)(C)C(=O)N[C@@H](CC(=O)O)C(=O)N[C@@H](Cc1ccccc1)C(=O)N[C@H](C(=O)N[C@@H](CC(N)=O)C(=O)N[C@@H](Cc1c[nH]c2ccccc12)C(=O)N[C@@H](CC(C)C)C(=O)N[C@@H](CC(C)C)C(=O)N[C@@H](C)C(=O)N[C@@H](CCC(N)=O)C(=O)N[C@@H](CCCNC(=N)N)C(=O)NCC(=O)O)C(C)C)[C@@H](C)CC [Compound 137],23% (3 nmol/kg),–,–,–,–,–,–,3.47 nM,0.0013 nM,≥ 15 mg/mL,≥ 30 mg/mL
I: H-[NMeY][Aib]EGTFISDYSIALDR[Aib]AQ[Aib]KFVNWLLAQSPSSGAPPPS-OH / II: {C18 diacid}-PAPAPGG (amide I:21-II:C) [Compound 103],–,29.5 nM,0.0017 nM,≥ 60 mg/mL,≥ 15 mg/mL,–,–,–,–,–,–
